In patent US7348425B2, “Inhibitors of HCV replication” (Bristol-Myers Squibb Company, priority 2004, dated 2008):
Read-outs that look alike come from different tables or passages of the source.

What was measured:
HCV replicon = HCV replicon luciferase assay; assay type: cell-based, Hepatitis C virus; details: Hepatitis C virus, read-out: EC50
Description: To prepare plates, HCV replicon cells, with or without a Renilla luciferase reporter gene, were trypsinized and placed into each well of a 96-well plate with titrated test compounds added in columns 3 through 12; columns 1 and 2 contained a control compound (HCV protease inhibitor), and the bottom row contained cells without compound. The plates were then placed in a CO2 incubator at 37 degrees C.
Assays. Subsequent to addition of the test compounds described above (FRET Assay Preparation), at various times the plate was removed and Alamar blue solution (Trek Diagnostics, #00-100) was added per well as a measure of cellular toxicity. After reading in a Cytoflour 4000 instrument (PE Biosystems), plates were rinsed with PBS and then used for FRET assay by the addition of 30 ul of the FRET peptide assay reagent described above (FRET Assay Preparation) per well. The plate was then placed into the Cytoflour 4000 instrument which had been set to 340 excite/490 emission, automatic mode for 20 cycles and the plate read in a kinetic mode. Typically, the signal to noise using an endpoint analysis after the reads was at least three-fold. Alternatively, after Alamar blue reading, plates were rinsed with PBS, 50 ul of DMEM (high glucose) without phenol red was added and plates were then used for luciferase assay using the Promega Dual-Glo Luciferase Assay System.
Compound analysis was determined by quantification of the relative HCV replicon inhibition and the relative cytotoxicity values. To calculate cytoxicity values, the average Alamar Blue fluorescence signals from the control wells were set as 100% non-toxic. The individual signals in each of the compound test wells were then divided by the average control signal and multiplied by 100% to determine […]. To calculate the HCV replicon inhibition values, an average background value was obtained from the two wells containing the highest amount of HCV protease inhibitor at the end of the assay period. These numbers were similar to those obtained from naïve Huh-7 cells.
The background numbers were then subtracted from the average signal obtained from the control wells and this number was used as 100% activity. The individual signals in each of the compound test wells were then divided by the averaged control values after background subtraction and multiplied by 100% to determine percent activity. EC50 values for a protease inhibitor titration were calculated as the concentration which caused a 50% reduction in FRET or luciferase activity. The two numbers generated for the compound plate, percent cytoxicity and percent activity were used to determine compounds of interest for further analysis.

[1] = target: T1, HCV NS5B RdRp genotype 1b (Hepatitis C virus genotype 1b, UniProt Q9WMX2); assay: Modified HCV NS5B RdRp enzyme assay (with preincubation); assay type: biochemical; details: modified method (with preincubation)
T1 construct: The protein was expressed with an 18 amino acid C-terminal truncation to enhance the solubility; made in house; host or cells: E. coli BL21 (DE3), pET21a
Outline: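 Seven-point IC50s were derived from SPA-based ³H-UTP incorporation after 4 h at 30 °C (Hepes pH 7.5, 2% DMSO). Compound was first mixed with 14 nM Δ18 NS5B genotype 1b enzyme. Then 0.2 nM polyA, 0.29 μM UTP and bead-bound oligo-dT12 (20 nM) were added.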

[2] = cells marked **: Luciferase assay

T1 sequence (Q9WMX2 2420-2992): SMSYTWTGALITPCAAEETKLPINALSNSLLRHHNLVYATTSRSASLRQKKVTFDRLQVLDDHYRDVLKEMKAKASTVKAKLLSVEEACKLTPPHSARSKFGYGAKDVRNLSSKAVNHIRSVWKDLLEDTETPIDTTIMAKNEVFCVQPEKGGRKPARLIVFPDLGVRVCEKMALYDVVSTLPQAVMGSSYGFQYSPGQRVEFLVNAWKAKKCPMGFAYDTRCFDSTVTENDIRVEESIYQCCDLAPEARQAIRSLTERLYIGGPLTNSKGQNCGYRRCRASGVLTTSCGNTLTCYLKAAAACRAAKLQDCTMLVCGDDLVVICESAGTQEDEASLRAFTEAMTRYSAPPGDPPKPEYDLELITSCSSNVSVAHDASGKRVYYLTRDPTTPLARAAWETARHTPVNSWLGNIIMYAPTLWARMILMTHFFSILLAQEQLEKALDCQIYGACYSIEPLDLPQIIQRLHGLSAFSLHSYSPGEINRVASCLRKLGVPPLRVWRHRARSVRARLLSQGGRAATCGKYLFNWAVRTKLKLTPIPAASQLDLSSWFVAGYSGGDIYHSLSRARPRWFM

SMILES	EC50 (HCV replicon; luciferase method) [nM]	IC50 [1] [nM]	EC50 (HCV replicon; [2]) [nM]
COC(=O)/C=C/c1ccc(NC(=O)C2(NC(=O)c3ccc4c(C5CCCCC5)c5n(c4c3)CCCc3occc3-5)CCCC2)cc1	100 to 1000		
O=C(O)/C=C/c1ccc(NC(=O)C2(NC(=O)c3ccc4c(C5CCCCC5)c5n(c4c3)CCCc3occc3-5)CCCC2)cc1	< 100		
O=C(O)/C=C/c1ccc(NC(=O)C2(NC(=O)c3ccc4c(C5CCCCC5)c5n(c4c3)CCCc3ccccc3-5)CCCC2)cc1		20 to 1000	10 to 1000
CCNC(=O)N(CCCN(C)C)C(=O)c1ccc2c(C3CCCCC3)c3n(c2c1)CCCc1ccccc1-3			1000 to 10000
CCOC(=O)/C=C/c1ccc(NC(=O)C2(NC(=O)c3ccc4c(C5CCCCC5)c5n(c4c3)C(OC)c3ccccc3-5)CCCC2)cc1 (stereo not shown)			1000 to 10000
COC1c2ccccc2-c2c(C3CCCCC3)c3ccc(C(=O)NC4(C(=O)Nc5ccc(/C=C/C(=O)O)cc5)CCCC4)cc3n21 (stereo not shown)		20 to 1000	10 to 1000
O=C(O)/C=C/c1ccc(NC(=O)C2(NC(=O)c3ccc4c(C5CCCCC5)c5n(c4c3)C/C=C\CNc3ccccc3-5)CCCC2)cc1		20 to 1000	10 to 1000
O=C(O)c1ccc2c(C3CCCCC3)c3n(c2c1)CC(=O)N3c1ccccc1			> 10000
O=C1Cn2c(c(C3CCCCC3)c3ccc(C(=O)O)cc32)N1			> 10000
O=C(O)c1ccc2c(C3CCCCC3)c3n(c2c1)CCOc1ccccc1-3			10 to 1000
O=C(O)c1ccc2c(C3CCCCC3)c3n(c2c1)CCCn1ccnc1-3			> 10000
O=C(O)/C=C/c1ccc(NC(=O)C2(NC(=O)c3ccc4c(C5CCCCC5)c5n(c4c3)CCCn3ccnc3-5)CCCC2)cc1		20 to 1000	1000 to 10000
CCOC(=O)/C=C/c1ccc(NC(=O)C2(N(C)C(=O)c3ccc4c(C5CCCCC5)c5n(c4c3)CCCc3ccccc3-5)CCCC2)cc1		> 1000	1000 to 10000
COC(=O)c1ccc2c(C3CCCCC3)c3n(c2c1)CC(NC(=O)N1CCOCC1)Cc1ccccc1-3 (stereo not shown)			1000 to 10000
COC(=O)c1ccc2c(C3CCCCC3)c3n(c2c1)CC=Cc1ccccc1-3 [Example 1, Methyl 13-cyclohexyl-7H-indolo[2,1-a][2]benzazepine-10-carboxylate]	> 10000		
COC(=O)c1ccc2c(C3CCCCC3)c3n(c2c1)CC=Cc1cc(OCc2ccccc2)ccc1-3 [Example 4, Methyl 13-cyclohexyl-3-benzyloxy-7H-indolo[2,1-a][2]benzazepine-10-carboxylate]	> 10000		
COC(=O)c1ccc2c(C3CCCCC3)c3n(c2c1)CCCc1cc(O)ccc1-3 [Example 5, Methyl 13-cyclohexyl-3-hydroxy-6,7-dihydro-5H-indolo[2,1-a][2]benzazepine-10-carboxylate]	> 10000		
O=C(O)c1ccc2c(C3CCCCC3)c3n(c2c1)CCOc1cccnc1-3 [Example 13, 13-cyclohexyl-6,7-dihydropyrido[2′,3′:6,7][1,4]oxazepino[4,5-a]indole-10-carboxylic acid]	100 to 1000		
CCOC(=O)c1cc2ccccc2c2c(C3CCCCC3)c3ccc(C(=O)OC)cc3n12 [drawing 141]			> 10000
O=C(O)c1ccc2c(C3CCCCC3)c3n(c2c1)CC(C(=O)O)Cc1ccccc1-3 (stereo not shown) [drawing 147]			> 10000
